In patent US3949090A, “Methods and compositions for improving feed efficiency in ruminants using dithiooxamide” (SmithKline Corporation, priority 1974, dated 1976):

Columns and labels:
[1] = system: Microbial Deaminase (strained rumen fluid); assay: In vitro microbial deaminase inhibition (rumen fluid, alfalfa hay, grain mixture; 4 hours); assay type: cell-based; settings: Table III, dithiooxamide 0 ppm, 240 min
Method: (§1) The in vitro fermentation system contained 75 ml. strained rumen fluid, 200 mg, alfalfa hay, 800 mg. of a crude protein grain mixture, 0.8 to 1.6 mM of each of 10 essential amino acids (threonine, valine, methionine, isoleucine, leucine, phelylalanine, tryptophan, lysine and arginine), and 0 to 50 ppm dithiooxamide. Flasks were incubated for 4 hours with effects upon amino acid deamination assessed as described for the previous system. Using standard chromatographic techniques, effects upon methanogenesis and upon the pattern of volatile fatty acid production were determined.
(§2) ^1 In vitro fermentation system contained 75 ml. strained rumen fluid
(§3) 200 mg. alfalfa hay, 800 mg. grain mixture (16% crude protein) and 1.6 mM
(§4) of each of ten essential amino acids. Flasks were incubated for four
(§5) 200 mg. alfalfa hay, 800 mg. grain mixture (16% crude protein) and 0.8 mM

[2] = system: methanogenesis (strained rumen fluid); assay: In vitro effects upon methanogenesis; assay type: cell-based; settings: Table III, dithiooxamide 0 ppm
Method: as §1, §2, §3, §4, §5

[3] = system: volatile fatty acid production (strained rumen fluid); assay: In vitro volatile fatty acid production; assay type: cell-based; settings: Table III, dithiooxamide 0 ppm; for Volatile Fatty Acids (molar distribution, %): Propionate: control 15; for Volatile Fatty Acids (molar distribution, %): Butyrate: control 21; for Volatile Fatty Acids (molar distribution, %): Acetate: control 64; for Volatile Fatty Acid Carbon: control 125
Method: as §1, §2, §3, §4, §5

[4] = system: gas production (strained rumen fluid); assay: In vitro gas production; assay type: cell-based; settings: Table III, dithiooxamide 0 ppm, control 65
Method: as §1, §2, §5, §4

sheep = settings: amino acid supplement; cited from earlier work
protein deposition = settings: compared with acetate; Potter et al., Eskeland et al.; cited from earlier work

## O=S(=O)([O-])[O-].[Co+2] [Cobalt Sulfate, reference compound]
[1]; cobalt sulfate .013 ppm
  MDI (%): 1%
[1]; cobalt sulfate .067 ppm
  MDI (%): 2%
[2]; cobalt sulfate .013 ppm
  Methane Inhibition (%): 1%
[2]; cobalt sulfate .067 ppm
  Methane Inhibition (%): -5%
[3]; cobalt sulfate .013 ppm
  Volatile Fatty Acids (molar distribution, %): Propionate: 15%
  Volatile Fatty Acids (molar distribution, %): Butyrate: 22%
  Volatile Fatty Acids (molar distribution, %): Acetate: 63%
  Volatile Fatty Acid Carbon: 120 μ moles/ml.
[3]; cobalt sulfate .067 ppm
  Volatile Fatty Acids (molar distribution, %): Propionate: 15%
  Volatile Fatty Acids (molar distribution, %): Butyrate: 22%
  Volatile Fatty Acids (molar distribution, %): Acetate: 63%
  Volatile Fatty Acid Carbon: 127 μ moles/ml.
[4]; cobalt sulfate .013 ppm
  Gas Production: 65 cc
[4]; cobalt sulfate .067 ppm
  Gas Production: 65 cc

## O=S(=O)([O-])[O-].[Cu+2] [Copper Sulfate, reference compound]
[1]; copper sulfate .067 ppm
  MDI (%): 3%
[1]; copper sulfate .333 ppm
  MDI (%): 6%
[2]; copper sulfate .067 ppm
  Methane Inhibition (%): -5%
[2]; copper sulfate .333 ppm
  Methane Inhibition (%): -11%
[3]; copper sulfate .067 ppm
  Volatile Fatty Acids (molar distribution, %): Propionate: 15%
  Volatile Fatty Acids (molar distribution, %): Butyrate: 21%
  Volatile Fatty Acids (molar distribution, %): Acetate: 64%
  Volatile Fatty Acid Carbon: 123 μ moles/ml.
[3]; copper sulfate .333 ppm
  Volatile Fatty Acids (molar distribution, %): Propionate: 15%
  Volatile Fatty Acids (molar distribution, %): Butyrate: 22%
  Volatile Fatty Acids (molar distribution, %): Acetate: 63%
  Volatile Fatty Acid Carbon: 121 μ moles/ml.
[4]; copper sulfate .067 ppm
  Gas Production: 65 cc
[4]; copper sulfate .333 ppm
  Gas Production: 64 cc

## CSCC[C@H](N)C(=O)O [Methionine]
sheep
  quality of wool in sheep (in words): particularly useful in increasing the quality of wool in sheep

## CCC(=O)O [propionate]
Protein deposition
  energy metabolites for protein deposition in sheep (in words): better energy metabolites than acetate for protein deposition in sheep
